Laboratory results as given in PubChem BioAssay AID256 (DTP/NCI, 2004).
Several values for one entry are separate records, joined by “and”; a condition that tells them apart may be missing. Equal values may be shown once. Inconclusive results and toxic doses are left out. Rule for the calls: active = survival T/C of 150% or more; inactive = T/C below 125% in these data.

Tested on: CD2F1 mice, L1210 leukemia ip, survival T/C
Assay: NCI In Vivo Anticancer Drug Screen. Data for tumor model L1210 Leukemia (intraperitoneal) in CD2F1 (CDF1) mice
Conditions: endpoint: mean survival time, higher = longer survival
Method in brief: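 Compound-dosed mice with transplantable tumor versus matched vehicle controls; endpoint ratio T/C reported.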

[1] = dose: 100.0 mg/kg/injection, schedule: Q04DX002 (ip), vehicle: saline with Tween-80
[2] = dose: 200.0 mg/kg/injection, schedule: Q04DX002 (ip), vehicle: saline with Tween-80
[3] = dose: 400.0 mg/kg/injection, schedule: Q04DX002 (ip), vehicle: saline with Tween-80
[4] = dose: 100.0 mg/kg/injection, schedule: Q04DX003 (ip), vehicle: saline with Tween-80
[5] = dose: 400.0 mg/kg/injection, schedule: Q04DX003 (ip), vehicle: saline with Tween-80

Measured: T/C

O=C(c1ccccc1)C1CC2CCC1CC2 (configuration not stated)
inactive: dose: 50.0 mg/kg/injection, schedule: Q04DX002 (ip), vehicle: saline with Tween-80 96 % of control | [1] 86 % of control | [2] 93 % of control | [3] 89 % of control

CC(C)OC(CCCl)c1ccc(Cl)cc1 (configuration not stated)
inactive: dose: 100.0 mg/kg/injection, schedule: Q01DX009 (ip), vehicle: saline with Tween-80 104 % of control | [4] 94 % of control | dose: 200.0 mg/kg/injection, schedule: Q01DX009 (ip), vehicle: saline with Tween-80 96 % of control | dose: 200.0 mg/kg/injection, schedule: Q04DX003 (ip), vehicle: saline with Tween-80 96 % of control | dose: 400.0 mg/kg/injection, schedule: Q01DX009 (ip), vehicle: saline with Tween-80 89 % of control | [5] 97 % of control

COc1ccc(NC(=S)NN)cc1
inactive: dose: 25.0 mg/kg/injection, schedule: Q04DX003 (ip), vehicle: saline with Tween-80 110 % of control | dose: 50.0 mg/kg/injection, schedule: Q04DX003 (ip), vehicle: saline with Tween-80 91 % of control | [4] 87 % of control and 96 % of control | [5] 107 % of control

COc1ncc(C2OC(CO)C(O)C2O)c(OC)n1 (configuration not stated)
inactive: dose: 25.0 mg/kg/injection, schedule: Q01DX009 (ip), vehicle: other 100 % of control | dose: 50.0 mg/kg/injection, schedule: Q01DX009 (ip), vehicle: other 104 % of control | dose: 100.0 mg/kg/injection, schedule: Q01DX009 (ip), vehicle: other 96 % of control | dose: 200.0 mg/kg/injection, schedule: Q01DX009 (ip), vehicle: other 100 % of control | dose: 400.0 mg/kg/injection, schedule: Q01DX009 (ip), vehicle: other 96 % of control

COC(=O)c1ccccc1I
inactive: [1] 107 % of control | [2] 96 % of control | [3] 107 % of control
